Assay results: paper PMC10444862, “Using macromolecular electron densities to improve the enrichment of active compounds in virtual screening” (Communications Chemistry, 2023)

What follows are molecules tested against SARS-COV-2 3CLpro (having a P132H mutation, 3CLpro^P132H) (Severe acute respiratory syndrome coronavirus 2, UniProt P0DTD1, P3395H).
Assay type: biochemical

| Structure (SMILES) | Inhibition Rate ([Cpd.]=40 uM) |
| --- | --- |
| C/C(=N\Nc1nc2c(c(=O)[nH]c(=O)n2C)n1Cc1cccc2ccccc12)c1ccc(O)cc1 [D1, C/C(=N\Nc1nc2c(c(=O)[nH]c(=O)n2C)n1Cc1cccc2ccccc12)c1ccc(O)cc1] | 1.49 |
| O=C(CN1C(=O)NC2(CCCC2)C1=O)Nc1ccccc1C(=O)Nc1ccc2c(c1)OCO2 [D2, O=C(CN1C(=O)NC2(CCCC2)C1=O)Nc1ccccc1C(=O)Nc1ccc2c(c1)OCO2] | 0.56 |
| Cc1c(C(=O)NCCC2=CCCCC2)sc2ncnc(N(C)c3ccccc3)c12 [D3, Cc1c(C(=O)NCCC2=CCCCC2)sc2ncnc(N(C)c3ccccc3)c12] | 0.63 |
| COc1ccc(Cn2cc(C(CC(=O)N3CCCC3)c3ccccc3F)c3ccccc32)cc1 (stereo not drawn) [D4, COc1ccc(Cn2cc(C(CC(=O)N3CCCC3)c3ccccc3F)c3ccccc32)cc1] | < 0.5 |
| COc1ccccc1-n1c(=O)c2c3c(sc2n(Cc2cccc(F)c2)c1=O)CN(C(C)=O)CC3 [D5, COc1ccccc1-n1c(=O)c2c3c(sc2n(Cc2cccc(F)c2)c1=O)CN(C(C)=O)CC3] | < 0.5 |
| CC(C)C(NC(=O)c1ccccc1Cl)C(=O)OCC(=O)Nc1cccc(S(N)(=O)=O)c1 (stereo not drawn) [D6, CC(C)C(NC(=O)c1ccccc1Cl)C(=O)OCC(=O)Nc1cccc(S(N)(=O)=O)c1] | < 0.5 |
| COc1ccccc1-n1c(=O)c2c3c(sc2n(Cc2cccc(Cl)c2)c1=O)CN(C(C)=O)CC3 [D7, COc1ccccc1-n1c(=O)c2c3c(sc2n(Cc2cccc(Cl)c2)c1=O)CN(C(C)=O)CC3] | < 0.5 |
| O=C(c1ccsc1)N1CCC[C@H](n2c(=O)n(Cc3cccc(F)c3)c3cccnc32)C1 [D8, O=C(c1ccsc1)N1CCC[C@H](n2c(=O)n(Cc3cccc(F)c3)c3cccnc32)C1] | < 0.5 |
| Cc1ccccc1N1C(=O)C(=Cc2ccc(N3CCOCC3)cc2)c2ccccc2C1=O [D9, Cc1ccccc1N1C(=O)C(=Cc2ccc(N3CCOCC3)cc2)c2ccccc2C1=O] | < 0.5 |
| C/C(=N\Nc1nc2c(c(O)nc(=O)n2C)n1Cc1cccc2ccccc12)c1ccc(O)cc1 [D10, C/C(=N\Nc1nc2c(c(O)nc(=O)n2C)n1Cc1cccc2ccccc12)c1ccc(O)cc1] | < 0.5 |
| Cc1ccc(N2C(=O)N(CC(=O)Nc3cccc(S(N)(=O)=O)c3)C(=O)C2C)cc1 (stereo not drawn) [D11, Cc1ccc(N2C(=O)N(CC(=O)Nc3cccc(S(N)(=O)=O)c3)C(=O)C2C)cc1] | < 0.5 |
| CC1CC(C)CN(C(=O)c2ccccc2NC(=O)N2CC(O)CC(F)(F)C2)C1 (stereo not drawn) [D12, CC1CC(C)CN(C(=O)c2ccccc2NC(=O)N2CC(O)CC(F)(F)C2)C1] | < 0.5 |
| CC(C)[C@H](NS(=O)(=O)c1ccccc1F)C(=O)OCC(=O)Nc1cccc(S(N)(=O)=O)c1 [D13, CC(C)[C@H](NS(=O)(=O)c1ccccc1F)C(=O)OCC(=O)Nc1cccc(S(N)(=O)=O)c1] | < 0.5 |
| Cc1c(C(=O)N(C)Cc2ccccc2)sc2ncnc(N(C)c3ccccc3)c12 [D14, Cc1c(C(=O)N(C)Cc2ccccc2)sc2ncnc(N(C)c3ccccc3)c12] | < 0.5 |
| Cn1nccc1C(=O)N1CCC[C@H](n2c(=O)n(Cc3ccccc3)c3cccnc32)C1 [D15, Cn1nccc1C(=O)N1CCC[C@H](n2c(=O)n(Cc3ccccc3)c3cccnc32)C1] | < 0.5 |
| O=CN1CCCN(C(=O)CC2C(=O)NCCN2Cc2cccc(Oc3ccccc3)c2)CC1 (stereo not drawn) [D16, O=CN1CCCN(C(=O)CC2C(=O)NCCN2Cc2cccc(Oc3ccccc3)c2)CC1] | < 0.5 |
| COc1ccccc1-n1c(=O)c2c3c(sc2n(Cc2ccccc2)c1=O)CN(C(C)=O)CC3 [D17, COc1ccccc1-n1c(=O)c2c3c(sc2n(Cc2ccccc2)c1=O)CN(C(C)=O)CC3] | < 0.5 |

| Structure (SMILES) | Inhibition Rate ([Cpd.]=40 uM) |
| --- | --- |
| O=C(c1ccco1)N1CCC[C@H](n2c(=O)n(Cc3ccccc3)c3cccnc32)C1 [D18, O=C(c1ccco1)N1CCC[C@H](n2c(=O)n(Cc3ccccc3)c3cccnc32)C1] | < 0.5 |
| O=C(Nc1ccccc1)N1CCCC(C(=O)N2CC(C(=O)N3CCCCC3)Oc3ccccc32)C1 (stereo not drawn) [D19, O=C(Nc1ccccc1)N1CCCC(C(=O)N2CC(C(=O)N3CCCCC3)Oc3ccccc32)C1] | < 0.5 |
| C[C@@]1(O)C[C@H](O)CN(C(=O)[C@@H](N)Cc2ccc(O)cc2)C[C@H]1n1cnc2c(N)nc(N)nc21 [D20, C[C@@]1(O)C[C@H](O)CN(C(=O)[C@@H](N)Cc2ccc(O)cc2)C[C@H]1n1cnc2c(N)nc(N)nc21] | < 0.5 |
| O=C(NC(c1ccccc1)c1ccc2[nH]cnc2c1)C1=NN(C2CCS(=O)(=O)C2)C(=O)CC1 (stereo not drawn) [D21, O=C(NC(c1ccccc1)c1ccc2[nH]cnc2c1)C1=NN(C2CCS(=O)(=O)C2)C(=O)CC1] | < 0.5 |
| CC(=O)N1CCc2c(sc3c2c(=O)n(-c2ccccc2)c(=O)n3CC(=O)c2ccc(F)cc2)C1 [D22, CC(=O)N1CCc2c(sc3c2c(=O)n(-c2ccccc2)c(=O)n3CC(=O)c2ccc(F)cc2)C1] | < 0.5 |
| COCCn1/c(=N/C(=O)c2c(F)cccc2F)sc2cc(S(N)(=O)=O)ccc21 [D23, COCCn1/c(=N/C(=O)c2c(F)cccc2F)sc2cc(S(N)(=O)=O)ccc21] | < 0.5 |
| O=C(c1cccc(O)c1)N1C[C@@H](c2cc(F)cc(F)c2)[C@@H]2[C@H]1C1CCN2CC1 [D24, O=C(c1cccc(O)c1)N1C[C@@H](c2cc(F)cc(F)c2)[C@@H]2[C@H]1C1CCN2CC1] | < 0.5 |
| Cn1c(NC(=O)c2cnn3c(C(F)(F)F)cc(-c4cccc5ccccc45)nc23)nc2ccccc21 [E1, Cn1c(NC(=O)c2cnn3c(C(F)(F)F)cc(-c4cccc5ccccc45)nc23)nc2ccccc21] | 0.82 |
| CCn1c(=O)n(CCC(=O)NC(Cc2ccccc2)c2nc3ccccc3[nH]2)c2ccccc21 (stereo not drawn) [E2, CCn1c(=O)n(CCC(=O)NC(Cc2ccccc2)c2nc3ccccc3[nH]2)c2ccccc21] | 0.67 |
| CC(=O)N1CCc2c(sc3c2c(=O)n(-c2ccc(F)cc2)c(=O)n3Cc2cc(C)ccc2C)C1 [E3, CC(=O)N1CCc2c(sc3c2c(=O)n(-c2ccc(F)cc2)c(=O)n3Cc2cc(C)ccc2C)C1] | 0.92 |
| O=C1/C(=C\NN(Cc2ccccc2)c2ccccc2)c2ccccc2C(=O)N1c1cccc(Cl)c1 [E4, O=C1C(=CNN(Cc2ccccc2)c2ccccc2)c2ccccc2C(=O)N1c1cccc(Cl)c1] | 0.65 |
| CC(=O)N1CCc2c(sc3c2c(=O)n(-c2ccccc2)c(=O)n3Cc2cc(C)ccc2C)C1 [E5, CC(=O)N1CCc2c(sc3c2c(=O)n(-c2ccccc2)c(=O)n3Cc2cc(C)ccc2C)C1] | 0.64 |
| O=C(c1cccnc1)N1CCc2c([nH]c3ccccc23)C1c1cccc(C(F)(F)F)c1 (stereo not drawn) [E6, O=C(c1cccnc1)N1CCc2c([nH]c3ccccc23)C1c1cccc(C(F)(F)F)c1] | 0.55 |
| CC(=O)N1C(C(=O)N(CCc2ccccc2)Cc2ccccc2)CSC1c1ccccc1O (stereo not drawn) [E7, CC(=O)N1C(C(=O)N(CCc2ccccc2)Cc2ccccc2)CSC1c1ccccc1O] | 0.63 |
| Cc1cccc(Cn2c(=O)c(C(=O)NCc3ccco3)nn(-c3ccccc3F)c2=O)c1 [E8, Cc1cccc(Cn2c(=O)c(C(=O)NCc3ccco3)nn(-c3ccccc3F)c2=O)c1] | 0.66 |
| CCc1ccccc1N(CC(=O)Nc1ccccc1C(=O)NC(C)CC)S(=O)(=O)c1ccccc1 (stereo not drawn) [E9, CCc1ccccc1N(CC(=O)Nc1ccccc1C(=O)NC(C)CC)S(=O)(=O)c1ccccc1] | 0.54 |
